Data: patent publication US20240131038A1, “ANTI-INFLAMMATORY COMPOSITIONS COMPRISING CANNABIDIOL, DELTA-9-TETRAHYDROCANNABINOL AND LINALOOL” (Cymra Life Sciences Limited, priority 2020, published 2024)
Where two headings read alike, the source gives them in different places.

Columns and labels:
Assay type in all cases: cell-based, murine
Conditions in all cases: for IC50: Mus musculus
NO release = assay: Nitric oxide (NO) assay: NO release in LPS-stimulated RAW264.7 macrophages (Griess reagent)
Procedure: (§1) Anti-inflammatory activity was determined in lipopolysaccharide (LPS) stimulated murine macrophages, RAW264.7 cells cultured in standard cell culture media (DMEM, Fetal bovine serum 5%) and incubated in the presence or absence of different test compounds/extracts and controls. The production of inflammatory mediators, including NO, cytokines TNFα and IL-6, were measured by established methods using commercial ELISA kits (Table 3). Each sample was tested with at least 6 concentrations (using 3 replicates; i.e., n=9), with relevant internal controls (Table 3). The cytotoxicity of each sample tested was determined by MTT assay.
(§2) Briefly, for the NO, TNFα and IL-6 assays the cultured RAW264.7 cells were counted and plated (0.8×10^5 cells/well) in 96 well plates and incubated for 48 hours. The medium was then aspirated and replaced with fresh medium followed by the addition of the test compounds. The compounds were incubated for 1 hour prior to the addition of the stimulant. The plates were then incubated for 18 hours and the supernatant analyzed for the inflammatory mediator of interest, the remaining cell viability was determined by MTT.
(§3) The data are presented as mean and standard error of mean (SEM). The dose response curves were fit using Graph Pad Prism. The 95% confidence intervals (CI) were calculated using the whole data set and give an estimate error in the IC50 value. The 95% CI for the IC50 where the IC50 was not reached in the testing concentrations require graphical extrapolation to calculate the IC50. Where the IC50 has been estimated by graphical extrapolation “˜” is used to indicate that it is an estimate and not experimentally determined, unless otherwise stated. The graphical extrapolation results in a wider 95% confidence interval.
(§4) The synergism combination index (CI) and isobologram IC50 weightings were calculated using Compsyn software. The dose response curve generated in GraphPad prism was transformed into 15 points representing the curve. These 15 points were then entered into the Compsyn program that generated a curve to fit the data points. This method was preferable to closely replicate the complete dose response curve in the synergy program. The Compsyn fit curve was then used for synergy calculations.
(§5) A CI value of less than 0.5 is considered highly synergistic, a CI of less than 1 indicates synergy, a CI of from 1.5 to 1 is considered additive, a CI of from 4 to 1.5 is indifferent and a CI greater than 4 is considered antagonism.

TNF-α release = assay: TNF-α assay: TNF-α release in LPS-stimulated RAW264.7 macrophages (ELISA)
Procedure: as §1, §2, §3, §4, §5

IL-6 release = assay: IL-6 assay: IL-6 release in LPS-stimulated RAW264.7 macrophages (ELISA)
Procedure: as §1, §2, §3, §4, §5

[1] = RAW264.7, 18 h, read-out: IC50 for NO inhibition
[2] = RAW264.7, 18 h, TNF-α inhibition, total concentration of the combination, Table 8, read-out: GraphPad IC50
[3] = RAW264.7, TNF-α inhibition, Compusyn fit curve, Table 8, read-out: Compusyn IC50
[4] = LPS-stimulated RAW264.7 cells, 18 h, Table 7, read-out: IC50 for TNF-α inhibition
[5] = RAW264.7, 18 h, IL-6 assay, total concentration of the combination, Table 11, read-out: GraphPad IC50
[6] = RAW264.7, IL-6 assay, Compusyn fit curve, Table 11, read-out: Compusyn IC50
[7] = LPS-stimulated RAW264.7 cells, 18 h, Table 10, read-out: IC50 for IL-6 inhibition
[8] = RAW264.7, read-out: Compusyn IC50

| SMILES | IC50 (NO release; [1]) [µg/mL] | TNF-α inhibition and synergy, result in words (TNF-α release; LPS-stimulated RAW264.7 cells) | IC50 (TNF-α release; [2]) [µg/mL] | IC50 (TNF-α release; [3]) [µg/mL] | IC50 (TNF-α release; [4]) [µg/mL] | IL-6 inhibition and synergy, result in words (IL-6 release; LPS-stimulated RAW264.7 cells) | IC50 (IL-6 release; [5]) [µg/mL] | IC50 (IL-6 release; [6]) [µg/mL] | IC50 (IL-6 release; [7]) [µg/mL] | NO inhibition and synergy, result in words (NO release; LPS-stimulated RAW264.7 cells) | IC50 (NO release; [8]) [µg/mL] | Compusyn IC50 (TNF-α release; TNF-α assay, Table 9) [µg/mL] | Compusyn IC50 (IL-6 release; IL-6 assay, Table 12) [µg/mL] | Compusyn IC50 (NO release; NO assay, Table 6) [µg/mL] |
| --- | --- | --- | --- | --- | --- | --- | --- | --- | --- | --- | --- | --- | --- | --- |
| CC(=N)NCc1cccc(CN)c1 [1400 W, N-(3-(Aminomethyl)benzyl)acetamidine] | 1.2 | – | – | – | – | – | – | – | – | – | – | – | – | – |
| C=C(C)[C@@H]1CCC(C)=C[C@H]1c1c(O)cc(CCCCC)cc1O [CBD, cannabidiol] | 1.4 | most active compound for TNF-α inhibition | 4.6 | 4.6 | 4.6 | most active compound for IL-6 inhibition | 1.4 | 1.4 | 1.4 | most active compound for NO inhibition | 1.4 | – | – | – |
| C[C@@H]1C[C@H]2[C@@H]3CCC4=CC(=O)C=C[C@]4(C)[C@@]3(F)[C@@H](O)C[C@]2(C)[C@@]1(O)C(=O)CO [Dexamethasone, dexamethasone] | – | – | – | – | 2.7 | – | – | – | 0.016 | – | – | – | – | – |
| C=CC(C)(O)CCC=C(C)C (stereo not drawn) [Linalool, linalool] | > 240 | – | > 240 | > 240 | > 240 | – | > 240 | > 240 | > 240 | – | > 240 | >240 | >240 | >240 |
| CCCCCc1cc(O)c2c(c1)OC(C)(C)[C@@H]1CCC(C)=C[C@@H]21 [THC, Δ-9-tetrahydrocannabinol] | 6.5 | – | 44 | 45 | 44 | – | 4.2 | 4.2 | 4.2 | – | 6.5 | – | – | – |
